# Earlier results as cited in publication PMC6323428, “Elucidation of the Intestinal Absorption Mechanism of Loganin in the Human Intestinal Caco-2 Cell Model” (Evidence-based Complementary and Alternative Medicine : eCAM, 2018).
# Test system: human intestinal Caco-2 cells
# Parameters: method as in PMID 27531366
# Details: Caco-2 cells model, chiefly passive diffusion; cited from earlier work
compound,measurement,value
COC(=O)C1=CO[C@@H](O[C@@H]2O[C@H](CO)[C@@H](O)[C@H](O)[C@H]2O)[C@@H]2C(CO)=CC[C@H]12 [geniposide],Intestinal permeability (in words),good
